Reference: patent publication US20170320848A1, “COMPOUNDS FOR USE IN ANTHELMINTHIC TREATMENT” (Bayer Animal Health GMBH, priority 2014, published 2017)

Experiments:
[1] = Measurement of LogP values by HPLC on reversed phase columns (EEC directive 79/831 Annex V.A8); assay type: physicochemical; conditions: acidic range, 0.1% formic acid in water and acetonitrile as eluent; for chromatographic logP: reversed phase HPLC columns, read-out: logP (HCOOH)[a]
[2] = tested on: Cooperia curticei; experiment: Cooperia curticei assay (COOPCU), larval mortality; assay type: cell-based; conditions: application rate 20 ppm, after 5 days; for mortality at 20 ppm: Cooperia curticei, 120 h, read-out: activity (percentage of larval mortality)
Experimental: Cooperia Curticei—Assay (COOPCU)
Solvent: dimethyl sulfoxide
To produce a suitable preparation, 10 mg of active compound are dissolved in 0.5 ml solvent, and the concentrate is diluted with “Ringer's solution” to the desired concentration.
Approximately 40 nematode larvae (Cooperia curticei) are transferred into a test tube containing the compound solution.
After 5 days percentage of larval mortality is recorded. 100% efficacy means all larvae are killed; 0% efficacy means no larvae are killed.

[3] = tested on: Meloidogyne incognita; experiment: Meloidogyne incognita assay (MELGIN), gall formation on salad seedlings; assay type: in vivo; conditions: application rate 20 ppm, after 14 days
Experimental: Meloidogyne Incognita—Assay (MELGIN)
Solvent: 125.0 parts by weight of acetone
To produce a suitable preparation, 1 part by weight of active compound is mixed with the stated amount of solvent, and the concentrate is diluted with water to the desired concentration.
Vessels are filled with sand, a solution of the active ingredient, a suspension containing eggs and larvae of the southern root-knot nematode (Meloidogyne incognita) and salad seeds. The salad seeds germinate and the seedlings grow. Galls develop in the roots.
After 14 days the nematicidal activity is determined on the basis of the percentage of gall formation. 100% means no galls were found and 0% means the number of galls found on the roots of the treated plants was equal to that in untreated control plants.

N#Cc1cc(-c2ccc(F)cc2)ccc1C(F)(F)CNC(=O)c1ccccc1C(F)(F)F [Example 74]
logP (HCOOH)[a] [1]: 3.63
activity (percentage of larval mortality) [2]: 90%

O=C(NCC(F)(F)c1ccc(-c2cc(F)c(F)c(F)c2)cc1Cl)c1c(F)cccc1F [Example 117]
logP (HCOOH)[a] [1]: 4.05
nematicidal activity (percentage of gall formation) [3]: 100%

O=C(NCC(F)(F)c1ccc(-c2cc(F)c(F)c(F)c2)cc1Cl)c1ncccc1C(F)(F)F [Example 112]
logP (HCOOH)[a] [1]: 4.23
nematicidal activity (percentage of gall formation) [3]: 100%

N#Cc1cc(-c2ccc(C(F)(F)CNC(=O)c3ccccc3C(F)(F)F)c(Cl)c2)ccc1Cl [Example 95]
logP (HCOOH)[a] [1]: 4.07
nematicidal activity (percentage of gall formation) [3]: 100%

O=C(NCC(F)(F)c1ccc(-c2ccc(F)cc2)cc1Cl)c1nccnc1C(F)(F)F [Example 61]
logP (HCOOH)[a] [1]: 3.85
nematicidal activity (percentage of gall formation) [3]: 100%

Cc1cc(-c2ccc(F)c(Cl)c2)ccc1C(F)(F)CNC(=O)c1ccccc1C(F)(F)F [Example 124]
logP (HCOOH)[a] [1]: 4.56
nematicidal activity (percentage of gall formation) [3]: 100%

O=C(NCC(F)(F)c1ccc(-c2ccc(N3CCCC3)cc2)cc1Cl)c1ccccc1C(F)(F)F [Example 78]
logP (HCOOH)[a] [1]: 5.08
activity (percentage of larval mortality) [2]: 90%

O=C(NCC(F)(F)c1ccc(-c2ccc(F)cc2)cc1Cl)c1c(F)cccc1F [Example 60]
logP (HCOOH)[a] [1]: 3.85
nematicidal activity (percentage of gall formation) [3]: 100%

O=C(NCC(F)(F)c1ccc(-c2ccc(F)cc2)cc1Cl)c1ncccc1C(F)(F)F [Example 62]
logP (HCOOH)[a] [1]: 4.05
nematicidal activity (percentage of gall formation) [3]: 100%

O=C(NCC(F)(F)c1ccc(-c2cccc(C(F)F)c2)cc1Cl)c1ccccc1C(F)(F)F [Example 43]
logP (HCOOH)[a] [1]: 4.03
nematicidal activity (percentage of gall formation) [3]: 100%

O=C(NCC(F)(F)c1ccc(-c2cccc(Cl)c2)cc1Cl)c1ccccc1C(F)(F)F [Example 69]
logP (HCOOH)[a] [1]: 4.6
nematicidal activity (percentage of gall formation) [3]: 100%

Cc1cc(-c2cccc(Cl)c2)ccc1C(F)(F)CNC(=O)c1ccccc1C(F)(F)F [Example 123]
logP (HCOOH)[a] [1]: 4.56
nematicidal activity (percentage of gall formation) [3]: 100%

O=C(NCC(F)(F)c1c(F)cc(-c2ccc(SC(F)(F)F)cc2)cc1F)c1ccccc1C(F)(F)F [Example 47]
logP (HCOOH)[a] [1]: 4.82
nematicidal activity (percentage of gall formation) [3]: 90%

O=C(NCC(F)(F)c1ccc(-c2cccc(OC(F)F)c2)cc1Cl)c1ccccc1C(F)(F)F [Example 65]
logP (HCOOH)[a] [1]: 4.08
nematicidal activity (percentage of gall formation) [3]: 100%

COc1cc(-c2ccc(C#N)cc2)ccc1C(F)(F)CNC(=O)c1ccccc1C(F)(F)F [Example 51]
logP (HCOOH)[a] [1]: 3.43
activity (percentage of larval mortality) [2]: 90%

CNc1ccc(-c2ccc(C(F)(F)CNC(=O)c3ccccc3C(F)(F)F)c(Cl)c2)cc1 [Example 29]
chromatographic logP [1]: 3.59
mortality at 20 ppm [2]: 80%

Cc1cc(-c2ccc(Cl)c(Cl)c2)ccc1C(F)(F)CNC(=O)c1ccccc1C(F)(F)F [Example 122]
logP (HCOOH)[a] [1]: 4.98
nematicidal activity (percentage of gall formation) [3]: 100%

Cc1cc(-c2ccc(F)c(F)c2)ccc1C(F)(F)CNC(=O)c1ccccc1C(F)(F)F [Example 120]
logP (HCOOH)[a] [1]: 4.2
nematicidal activity (percentage of gall formation) [3]: 100%

COc1cc(-c2ccc(C(F)(F)F)cc2)ccc1C(F)(F)CNC(=O)c1ccccc1C(F)(F)F [Example 87]
logP (HCOOH)[a] [1]: 4.33
activity (percentage of larval mortality) [2]: 90%

O=C(NCC(F)(F)c1ccc(-c2ccc(Cl)c(Cl)c2)cc1Cl)c1ccccc1C(F)(F)F [Example 70]
logP (HCOOH)[a] [1]: 4.93
nematicidal activity (percentage of gall formation) [3]: 90%

O=C(NCC(F)(F)c1ccc(-c2ccc(F)c(Cl)c2)cc1Cl)c1ccccc1C(F)(F)F [Example 94]
logP (HCOOH)[a] [1]: 4.57
nematicidal activity (percentage of gall formation) [3]: 100%

N#Cc1cc(-c2cccc(C(F)F)c2)ccc1C(F)(F)CNC(=O)c1ccccc1C(F)(F)F [Example 79]
logP (HCOOH)[a] [1]: 3.59
activity (percentage of larval mortality) [2]: 80%

O=C(NCC(F)(F)c1ccc(-c2cc(F)cc(F)c2)cc1F)c1ccccc1C(F)(F)F [Example 101]
nematicidal activity (percentage of gall formation) [3]: 100%

O=C(NCC(F)(F)c1ccc(-c2ccc(OC(F)F)cc2)cc1Cl)c1ccccc1C(F)(F)F [Example 68]
logP (HCOOH)[a] [1]: 4.03
nematicidal activity (percentage of gall formation) [3]: 100%

Cc1cc(-c2ccc(SC(F)(F)F)cc2)ccc1C(F)(F)CNC(=O)c1ccccc1C(F)(F)F [Example 50]
logP (HCOOH)[a] [1]: 5.08
nematicidal activity (percentage of gall formation) [3]: 100%

O=C(NCC(F)(F)c1ccc(-c2ccc(F)cc2)cc1Cl)c1cccnc1I [Example 64]
logP (HCOOH)[a] [1]: 3.56
nematicidal activity (percentage of gall formation) [3]: 100%

O=C(NCC(F)(F)c1c(F)cc(-c2cc(F)c(F)c(F)c2)cc1F)c1ccccc1C(F)(F)F [Example 108]
logP (HCOOH)[a] [1]: 4.2
nematicidal activity (percentage of gall formation) [3]: 90%

O=C(NCC(F)(F)c1ccc(-c2ccc(F)cc2)cc1Cl)c1cccnc1Cl [Example 63]
logP (HCOOH)[a] [1]: 3.46
nematicidal activity (percentage of gall formation) [3]: 100%

COc1ccc(-c2ccc(C(F)(F)CNC(=O)c3ccccc3C(F)(F)F)c(F)c2)cc1 [Example 6]
mortality at 20 ppm [2]: 80%

O=C(NCC(F)(F)c1ccc(-c2cc(F)c(F)c(F)c2)cc1Cl)c1nccnc1C(F)(F)F [Example 111]
logP (HCOOH)[a] [1]: 4.05

CN(C)c1ccc(-c2ccc(C(F)(F)CNC(=O)c3ccccc3C(F)(F)F)c(Cl)c2)cc1 [Example 28]
chromatographic logP [1]: 4.28
mortality at 20 ppm [2]: 80%

O=C(NCC(F)(F)c1c(F)cc(-c2ccc(C(F)(F)F)cc2)cc1F)c1ccccc1C(F)(F)F [Example 86]
logP (HCOOH)[a] [1]: 4.38

O=C(NCC(F)(F)c1ccc(-c2cc(F)c(F)c(F)c2)cc1Cl)c1ccccc1Cl [Example 115]
logP (HCOOH)[a] [1]: 4.23
nematicidal activity (percentage of gall formation) [3]: 100%

CN(C)c1ccc(-c2ccc(C(F)(F)CNC(=O)c3ccccc3C(F)(F)F)c(C(F)(F)F)c2)cc1 [Example 10]
mortality at 20 ppm [2]: 80%

O=C(NCC(F)(F)c1ccc(-c2ccc3c(c2)OC(F)(F)O3)cc1Cl)c1ccccc1C(F)(F)F [Example 71]
logP (HCOOH)[a] [1]: 4.57

CC(=O)Nc1ccc(-c2ccc(C(F)(F)CNC(=O)c3ccccc3C(F)(F)F)c(Cl)c2)cc1 [Example 30]
chromatographic logP [1]: 2.93

N#Cc1ccc(-c2ccc(C(F)(F)CNC(=O)c3ccccc3C(F)(F)F)c(Cl)c2)c(F)c1 [Example 93]
logP (HCOOH)[a] [1]: 3.76

N#Cc1ccc(-c2ccc(C(F)(F)CNC(=O)c3ccccc3C(F)(F)F)c(Cl)c2)cc1Cl [Example 105]
logP (HCOOH)[a] [1]: 4.02
nematicidal activity (percentage of gall formation) [3]: 100%

O=C(NCC(F)(F)c1ccc(-c2ccc(N3CCOCC3)cc2)cc1Cl)c1ccccc1C(F)(F)F [Example 75]
logP (HCOOH)[a] [1]: 3.83

Cc1cc(-c2ccc(F)cc2F)ccc1C(F)(F)CNC(=O)c1ccccc1C(F)(F)F [Example 119]
logP (HCOOH)[a] [1]: 4.15
nematicidal activity (percentage of gall formation) [3]: 100%

N#Cc1cc(-c2ccc(SC(F)(F)F)cc2)ccc1C(F)(F)CNC(=O)c1ccccc1C(F)(F)F [Example 83]
logP (HCOOH)[a] [1]: 4.5

Cc1cc(-c2cc(F)c(F)c(F)c2)ccc1C(F)(F)CNC(=O)c1ccccc1C(F)(F)F [Example 109]
logP (HCOOH)[a] [1]: 4.48
nematicidal activity (percentage of gall formation) [3]: 100%

O=C(NCC(F)(F)c1ccc(-c2ccc(F)cc2)cc1C(F)(F)F)c1nccnc1C(F)(F)F [Example 52]
nematicidal activity (percentage of gall formation) [3]: 100%

O=C(NCC(F)(F)c1ccc(-c2cccc(OC(F)(F)F)c2)cc1Cl)c1ccccc1C(F)(F)F [Example 42]
logP (HCOOH)[a] [1]: 4.61

COc1cc(-c2cc(F)c(F)c(F)c2)ccc1C(F)(F)CNC(=O)c1ccccc1C(F)(F)F [Example 118]
logP (HCOOH)[a] [1]: 4.23

COc1cc(-c2ccc(OC(F)(F)F)cc2)ccc1C(F)(F)CNC(=O)c1ccccc1C(F)(F)F [Example 77]
logP (HCOOH)[a] [1]: 4.42

O=C(NCC(F)(F)c1ccc(-c2ccc(F)cc2)cc1Cl)c1ccccc1Br [Example 58]
logP (HCOOH)[a] [1]: 4.05

N#Cc1cc(-c2ccc(C(F)(F)CNC(=O)c3ccccc3C(F)(F)F)c(Cl)c2)ccc1F [Example 96]
logP (HCOOH)[a] [1]: 3.81

COc1cc(-c2ccc(C(F)F)cc2)ccc1C(F)(F)CNC(=O)c1ccccc1C(F)(F)F [Example 91]
logP (HCOOH)[a] [1]: 3.81
activity (percentage of larval mortality) [2]: 80%

O=C(NCC(F)(F)c1ccc(-c2cc(F)c(Cl)c(F)c2)cc1Cl)c1ccccc1C(F)(F)F [Example 110]
logP (HCOOH)[a] [1]: 4.77

Cc1cc(-c2ccc(OC(F)(F)F)cc2)ccc1C(F)(F)CNC(=O)c1ccccc1C(F)(F)F [Example 76]
logP (HCOOH)[a] [1]: 4.68

O=C(NCC(F)(F)c1ccc(-c2ccc([S+]([O-])C(F)(F)F)cc2)cc1Cl)c1ccccc1C(F)(F)F (stereo not shown) [Example 56]
logP (HCOOH)[a] [1]: 3.87

O=C(NCC(F)(F)c1ccc(-c2ccc(F)cc2)cc1Cl)c1ccccc1I [Example 57]
logP (HCOOH)[a] [1]: 4.17

O=C(NCC(F)(F)c1ccc(-c2ccc(Cl)cc2)cc1C(F)(F)F)c1nccnc1C(F)(F)F [Example 53]
nematicidal activity (percentage of gall formation) [3]: 100%

N#Cc1ccc(-c2cc(F)c(C(F)(F)CNC(=O)c3ccccc3C(F)(F)F)c(F)c2)cc1 [Example 46]
logP (HCOOH)[a] [1]: 3.53
